Test results reported in PubChem BioAssay (NCI).
“And” between values parts separate entries of the source, which are not always exact repeats. Equal values may be shown once.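 Method: 48-hour compound exposure of cells in 96-well plates, five concentrations, linear interpolation of endpoints. GI50 marks 50% less growth. At the TGI there is no net growth.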

Legend:
Assay in all cases: NCI tumour cell line growth inhibition, 48 h
[1] = test system: DLD-1 colon
[2] = test system: DMS 114 small cell lung
[3] = test system: DMS 273 small cell lung
[4] = test system: KM20L2 colon
[5] = test system: M19-MEL melanoma
[6] = test system: P388 leukemia
[7] = test system: SN12K1 renal
[8] = test system: XF 498 CNS
[9] = test system: ACHN renal
[10] = test system: LXFL 529 NSCLC
[11] = test system: SR leukemia
[12] = test system: TK-10 renal
[13] = test system: BT-549 breast
[14] = test system: DU-145 prostate
[15] = test system: MDA-MB-231 breast
[16] = test system: MDA-MB-435
[17] = test system: PC-3 prostate
[18] = test system: T-47D breast

Structure (SMILES): CC1=NN(C(=O)c2ccc(C)cc2)C(=O)C1N=Nc1ccccc1C(=O)O (stereo unspecified)
- TGI [1]: > 100 µM
- TGI [2]: > 100 µM
- TGI [3]: > 100 µM
- TGI [4]: > 100 µM
- TGI [5]: > 100 µM
- TGI [6]: > 51.5 µM
- TGI [7]: > 100 µM
- TGI [8]: > 100 µM

Structure (SMILES): CC1CCN(c2cc(-c3cc4ccccc4o3)oc(=O)c2C#N)CC1
- TGI [9]: > 100 µM
- TGI [1]: > 100 µM
- TGI [2]: > 100 µM
- TGI [3]: > 100 µM
- TGI [4]: > 100 µM
- TGI [10]: > 100 µM
- TGI [11]: > 100 µM
- TGI [12]: > 100 µM
- TGI [8]: > 100 µM

Structure (SMILES): O=C(/C=C\c1ccc(/C=C/C(=O)Nc2cccc(C3=NCCCN3)c2)cc1)Nc1cccc(C2=NCCCN2)c1
- TGI [1]: > 100 µM
- TGI [3]: > 100 µM
- TGI [4]: > 100 µM
- TGI [5]: > 100 µM
- TGI [6]: > 100 µM
- TGI [7]: > 100 µM

Structure (SMILES): CO/C(=N\N=C(/c1ccccc1)C(F)(F)F)c1ccncc1
- TGI [13]: > 100 µM
- TGI [14]: > 100 µM
- TGI [15]: > 100 µM
- TGI [16]: > 100 µM
- TGI [17]: > 100 µM
- TGI [11]: > 100 µM
- TGI [18]: > 100 µM

Structure (SMILES): c1csc(C(NC2=NCCO2)C2CC2)c1 (stereo unspecified)
- TGI [9]: > 100 µM
- TGI [15]: > 100 µM
- TGI [17]: > 100 µM
- TGI [11]: > 100 µM
- TGI [18]: > 100 µM

Structure (SMILES): Clc1ccc(-c2nnc(-c3nsc4ccccc34)o2)cc1
- TGI [9]: > 100 µM
- TGI [2]: > 100 µM
- TGI [3]: > 100 µM
- TGI [4]: > 100 µM
- TGI [10]: > 100 µM
- TGI [5]: > 100 µM
- TGI [12]: 51.2 µM

Structure (SMILES): Clc1cccc(C2SCc3nc4ccccc4n32)c1 (stereo unspecified)
- TGI [9]: 99.2 µM
- TGI [1]: 34.1 µM
- TGI [10]: > 100 µM
- TGI [5]: 58.4 µM
- TGI [11]: 56.3 µM
- TGI [12]: 63.9 µM

Structure (SMILES): Fc1ccc(C(OCCN2CC3CC2CN3)c2ccc(F)cc2)cc1 (stereo unspecified)
- TGI [9]: > 100 µM
- TGI [13]: > 100 µM
- TGI [14]: > 100 µM
- TGI [15]: > 100 µM
- TGI [16]: 53.8 µM
- TGI [17]: > 100 µM
- TGI [11]: 73 µM
- TGI [18]: > 100 µM
- TGI [12]: > 100 µM

Structure (SMILES): CC(=O)Nc1cc(/C=C\C(=O)N2CC(CCl)c3c2cc(N)c2ccccc32)n(C)n1 (stereo unspecified)
- GI50 [13]: 0.0225 µM
- TGI [14]: > 100 µM
- GI50 [16]: 0.0131 µM
- TGI [16]: 0.0399 µM and 0.0497 µM
- TGI [17]: > 100 µM
- TGI [12]: > 100 µM

Structure (SMILES): N/C(=N\N=C/c1cc([N+](=O)[O-])cc([N+](=O)[O-])c1O)NO
- TGI [1]: > 100 µM
- TGI [2]: > 100 µM
- TGI [3]: > 43.3 µM
- TGI [4]: > 100 µM
- TGI [5]: > 100 µM
- TGI [6]: 21.9 µM
- TGI [7]: 4.92 µM
- TGI [8]: 98.1 µM
